Laboratory results taken from paper PMC12406203 (Journal of Medicinal Chemistry, 2025).
“And” between values parts separate entries of the source, which are not always exact repeats. Equal values may be shown once. Read-outs that look alike come from different tables or passages of the source.

Experiments:
hAChE [1] = target: T1, hAChE (Homo sapiens, UniProt P22303); settings: residual activity at 100 μM; mean ± SD, one experiment in triplicate
Experimental: (§1) The inhibitory potencies of the compounds against the ChEs were determined using the method of Ellman. […] The final content of DMSO was always 1% [v/v]. […] The initial velocities in the presence (v i ) and absence (v 0) of the test compounds were calculated. The inhibitory potencies were expressed as the residual activities, according to RA = (v i – b)/(v 0 – b), where b is the blank value using phosphate buffer without ChEs. For IC50 determinations, at least seven different concentrations for each compound were used. The IC50 values were obtained by plotting the residual ChE activities against the applied inhibitor concentrations, with the experimental data fitted to a four-parameter logistic function (GraphPad Prism 10.0).

human p38α MAPK [2] = target: T2, human p38α MAPK (Homo sapiens, UniProt Q16539); settings: for p38α MAPK RA at 100 μM: residual activity at 100 μM, mean ± SD, one experiment in triplicate
T2 sequence (Q16539 whole entry): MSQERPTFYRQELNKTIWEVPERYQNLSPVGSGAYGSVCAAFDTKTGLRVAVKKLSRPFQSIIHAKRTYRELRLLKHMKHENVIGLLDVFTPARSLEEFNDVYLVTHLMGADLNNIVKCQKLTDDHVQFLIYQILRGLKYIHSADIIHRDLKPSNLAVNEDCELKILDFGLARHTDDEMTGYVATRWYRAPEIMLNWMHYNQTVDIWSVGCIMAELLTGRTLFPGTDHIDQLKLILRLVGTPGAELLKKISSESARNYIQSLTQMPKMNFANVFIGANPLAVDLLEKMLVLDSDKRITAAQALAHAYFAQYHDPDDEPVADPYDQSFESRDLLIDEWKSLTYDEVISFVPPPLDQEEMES
Experimental: (§2) The inhibitory activities against human p38α MAPK were evaluated using the commercially available ADP-Glo Kinase Assay (Promega, Inc., USA).
(§3) For the reference sample, 1% [v/v] DMSO replaced the inhibitor solution. […] The enzyme reaction was started with the addition of the enzyme solution. The DMSO concentration in the test solution was maintained at 1% [v/v]. The plate was incubated for 60 min. Then 5 μL of ADP-Glo reagent was added, followed by a 40 min incubation at room temperature. […] All incubations were performed at room temperature. The RA and IC50 values were calculated as described above (ChEs inhibitory potency).

hBChE [3] = target: T3, hBChE (Homo sapiens, UniProt P06276); settings: read-out: hBChE IC50 ± SEM; two independent experiments, each in triplicate
T3 sequence (P06276 29-602): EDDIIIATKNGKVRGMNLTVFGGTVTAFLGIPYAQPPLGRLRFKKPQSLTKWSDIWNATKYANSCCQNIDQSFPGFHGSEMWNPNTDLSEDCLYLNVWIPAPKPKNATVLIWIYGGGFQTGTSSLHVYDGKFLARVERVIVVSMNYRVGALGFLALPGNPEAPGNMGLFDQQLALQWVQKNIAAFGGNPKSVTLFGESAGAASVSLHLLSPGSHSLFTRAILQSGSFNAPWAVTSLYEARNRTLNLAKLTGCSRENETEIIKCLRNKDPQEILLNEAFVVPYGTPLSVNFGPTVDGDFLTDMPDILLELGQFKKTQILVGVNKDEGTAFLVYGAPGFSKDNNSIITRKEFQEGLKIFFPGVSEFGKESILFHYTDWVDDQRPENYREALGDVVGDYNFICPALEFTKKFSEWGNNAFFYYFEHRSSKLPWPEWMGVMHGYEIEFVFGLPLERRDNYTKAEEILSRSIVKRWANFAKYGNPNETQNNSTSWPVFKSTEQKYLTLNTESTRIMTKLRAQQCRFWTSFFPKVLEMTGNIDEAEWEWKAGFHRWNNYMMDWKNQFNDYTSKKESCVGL
Experimental: as §1

p38α MAPK [4] = target: p38α MAPK
human p38α MAPK [5] = target: T2, human p38α MAPK; experiment: biochemical; settings: p38α MAPK IC50 ± SEM, two independent experiments, each in triplicate
Experimental: as §2, §3

hBChE [6] = target: T3, hBChE; experiment: biochemical; settings: hBChE IC50 ± SEM, two independent experiments, each in triplicate
Experimental: as §1

hBChE [7] = target: hBChE
hAChE [8] = tested on: hAChE
hAChE [9] = target: hAChE; remark: listed apart in the source
hAChE [10] = target: T1, hAChE; experiment: biochemical; settings: hAChE IC50 ± SEM, two independent experiments, each in triplicate
Experimental: as §1

p38α MAPK [11] = target: p38α MAPK; remark: listed apart in the source
hBChE [12] = target: hBChE; remark: listed apart in the source

T1 sequence (P22303 32-614): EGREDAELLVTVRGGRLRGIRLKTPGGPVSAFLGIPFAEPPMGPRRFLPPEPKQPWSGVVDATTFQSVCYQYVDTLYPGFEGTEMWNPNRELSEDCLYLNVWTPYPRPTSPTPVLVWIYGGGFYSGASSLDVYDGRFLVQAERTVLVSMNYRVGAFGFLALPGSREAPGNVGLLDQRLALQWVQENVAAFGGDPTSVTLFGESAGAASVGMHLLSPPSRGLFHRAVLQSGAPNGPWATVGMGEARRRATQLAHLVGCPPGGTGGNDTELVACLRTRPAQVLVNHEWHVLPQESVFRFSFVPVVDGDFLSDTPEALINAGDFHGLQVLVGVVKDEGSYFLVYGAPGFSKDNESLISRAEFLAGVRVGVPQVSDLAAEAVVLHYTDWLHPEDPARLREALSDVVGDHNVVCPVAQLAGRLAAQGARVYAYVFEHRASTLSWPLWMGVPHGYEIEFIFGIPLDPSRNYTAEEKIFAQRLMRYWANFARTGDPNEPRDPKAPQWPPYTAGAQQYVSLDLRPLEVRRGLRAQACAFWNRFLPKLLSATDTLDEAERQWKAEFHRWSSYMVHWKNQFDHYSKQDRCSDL

Compound | hAChE RA at 100 μM (hAChE [1]) | IC50 (p38α MAPK [4]) [µM] | IC50 (human p38α MAPK [5]) [µM] | IC50 (hBChE [6]) | IC50 (hBChE [7]) [µM] | RA at 100 µM (hAChE [8]) | IC50 (hAChE [10]) [µM] | IC50 (hAChE [8]) [µM] | also measured
5-(2,4-Difluorobenzyl)-N-(2-(dimethylamino)ethyl)-1-methyl-2H-indazole-6-carboxamide [Compound 109] | 81.4 ± 7.5% |  |  |  |  |  |  |  | p38α MAPK RA at 100 μM (human p38α MAPK [2]): 89.6% and 89.6 ± 13.6%; IC50 (hBChE [3]): 1.06 ± 0.97 µM
COCC1CCCN(CCNC(=O)c2cc3c(cnn3CC3CCCCC3)cc2Oc2ccc(F)cc2F)C1 (racemic) [Compound 79, (±)-1-(Cyclohexylmethyl)-5-(2,4-difluorophenoxy)-N-(2-(3-(methoxymethyl)piperidin-1-yl)ethyl)-1H-indazole-6-carboxamide] |  | 0.379 | 0.379 ± 0.126 | 3.6 ± 0.825 µM | 3.6 | *11.6 ± 1.3% |  |  | 
CO/N=C(\C(=O)N[C@@H]1C(=O)N2C(C(=O)O)=C(COC(N)=O)CS[C@H]12)c1ccco1 [Cefuroxime, reference compound] |  |  |  |  |  |  |  |  | CNS (+/–) (PAMPA): CNS– (key: CNS+ indicates high predicted BBB permeation [Pe (×10–6 cm/s) > 4.0]; CNS– indicates low predicted BBB permeation [Pe (×10–6 cm/s) < 2.0])
CN(C)CCNC(=O)c1cc2c(cnn2CC2CC2)cc1Oc1ccc(F)cc1F [Compound 73, 1-(Cyclopropylmethyl)-5-(2,4-difluorophenoxy)-N-(2-(dimethylamino)ethyl)-1H-indazole-6-carboxamide] |  |  | 0.362 ± 0.139 | 10.5 ± 1.51 µM |  |  | 83.9 ± 28.9 |  | IC50 (hAChE [9]): 83.9 µM; IC50 (p38α MAPK [11]): 0.362 µM
CN(C)CCCNC(=O)c1cc2c(cnn2CC2CC2)cc1Oc1ccc(F)cc1F [Compound 74, 1-(Cyclopropylmethyl)-5-(2,4-difluorophenoxy)-N-(3-(dimethylamino)propyl)-1H-indazole-6-carboxamide] |  | 0.096 | 0.096 ± 0.011 | 8.68 ± 1.83 µM |  |  | 110 ± 38.4 | 110 | 
CN(C)CCNC(=O)c1cc2c(cnn2CC2CCCCC2)cc1Oc1ccc(F)cc1F [Compound 75, 1-(Cyclohexylmethyl)-5-(2,4-difluorophenoxy)-N-(2-(dimethylamino)ethyl)-1H-indazole-6-carboxamide] |  |  | 0.142 ± 0.079 | 2.89 µM and 2.9 µM |  |  | 64.4 ± 24.5 | 64.4 | IC50 (hAChE [9]): 64.4 µM; IC50 (p38α MAPK [11]): 0.142 µM
O=C(NCCN1CCOCC1)c1cc2c(cnn2CC2CCCCC2)cc1Oc1ccc(F)cc1F [Compound 80, 1-(Cyclohexylmethyl)-5-(2,4-difluorophenoxy)-N-(2-morpholinoethyl)-1H-indazole-6-carboxamide] | 51.9% and 51.9 ± 1.7% | 0.744 |  |  | 5.22 | 51.9 ± 1.7% |  |  | 
O=C(NCCn1cccc1)c1cc2c(cnn2CC2CCCCC2)cc1Oc1ccc(F)cc1F [Compound 81, N-(2-(1H-Pyrrol-1-yl)ethyl)-1-(cyclohexylmethyl)-5-(2,4-difluorophenoxy)-1H-indazole-6-carboxamide] | 58.7% and 58.7 ± 3.6% | 75.8 |  |  | 80 | 58.7 ± 3.6% |  |  | 
O=C(NCCn1ccnc1)c1cc2c(cnn2CC2CCCCC2)cc1Oc1ccc(F)cc1F [Compound 82, N-(2-(1H-Imidazol-1-yl)ethyl)-1-(cyclohexylmethyl)-5-(2,4-difluorophenoxy)-1H-indazole-6-carboxamide] | 65.1% and 65.1 ± 2.5% | 0.218 | 0.218 ± 0.017 | 18.7 ± 6.1 µM | 18.7 | 65.1 ± 2.5% |  |  | 
CN(C)CCNC(=O)c1cc2c(cnn2C2C=CCCC2)cc1Oc1ccc(F)cc1F (stereo not drawn) [Compound 83, 1-(Cyclohex-2-en-1-yl)-5-(2,4-difluorophenoxy)-N-(2-(dimethylamino)ethyl)-1H-indazole-6-carboxamide] | 52.9% and 53 ± 3% and 52.9 ± 2.7% |  | 0.088 ± 0.02 | 8.35 µM | 8.35 | 52.9 ± 2.7% |  |  | RA at 100 µM (hAChE [9]): 53 ± 3%; IC50 (hBChE [12]): 8.35 µM; IC50 (p38α MAPK [11]): 0.088 µM
CC(C)Cn1ncc2cc(Oc3ccc(F)cc3)c(C(=O)NCCN(C)C)cc21 [Compound 88, N-(2-(Dimethylamino)ethyl)-5-(4-fluorophenoxy)-1-isobutyl-1H-indazole-6-carboxamide] |  | 0.276 | 0.276 ± 0.015 | 6.38 ± 0.511 µM | 6.38 |  |  | 71.3 | 
CC(C)Cn1ncc2cc(Oc3cccc4ccccc34)c(C(=O)NCCN(C)C)cc21 [Compound 89, N-(2-(Dimethylamino)ethyl)-1-isobutyl-5-(naphthalen-1-yloxy)-1H-indazole-6-carboxamide] |  |  |  | 10.6 µM |  |  | 61.3 | 61.3 | IC50 (hAChE [9]): 61.3 µM; RA at 100 µM (p38α MAPK [4]): 0.9 ± 0.3%; p38α MAPK RA (1 μM) (human p38α MAPK [2]; residual activity at 1 μM): 24 ± 0%; p38α MAPK RA (10 μM) (human p38α MAPK [2]; residual activity at 10 μM): 5 ± 0%; p38α MAPK RA at 100 μM (human p38α MAPK [2]): 0.9 ± 0.3% and 1 ± 0%; RA (1 μM) (p38α MAPK [11]): RA (1 μM): 24 ± 0%; RA (10 μM) (p38α MAPK [11]): RA (10 μM): 5 ± 0%; RA (100 μM) (p38α MAPK [11]): RA (100 μM): 1 ± 0%
CC(C)Cn1ncc2cc(Oc3ccc4ccccc4c3)c(C(=O)NCCN(C)C)cc21 [Compound 90, N-(2-(Dimethylamino)ethyl)-1-isobutyl-5-(naphthalen-2-yloxy)-1H-indazole-6-carboxamide] |  |  |  | 11.5 ± 2 µM |  |  | 116 ± 27.8 | 116 | RA at 100 µM (p38α MAPK [4]): 9.5 ± 0.6%; p38α MAPK RA at 100 μM (human p38α MAPK [2]): 9.5 ± 0.6%
CC(C)Cn1ncc2cc(Sc3ccc(F)cc3F)c(C(=O)NCCN(C)C)cc21 [Compound 92, 5-((2,4-Difluorophenyl)thio)-N-(2-(dimethylamino)ethyl)-1-isobutyl-1H-indazole-6-carboxamide] | 62.8% and 63 ± 3% and 62.8 ± 3.0% |  | 0.053 ± 0.017 | 2.25 µM | 2.25 | 62.8 ± 3.0% |  |  | RA at 100 µM (hAChE [9]): 63 ± 3%; IC50 (hBChE [12]): 2.25 µM; IC50 (p38α MAPK [11]): 0.053 µM
CN(C)CCNC(=O)c1cc2nn(CC3CCCCC3)cc2cc1Oc1ccc(F)cc1F [Compound 99, 2-(Cyclohexylmethyl)-5-(2,4-difluorophenoxy)-N-(2-(dimethylamino)ethyl)-2H-indazole-6-carboxamide] |  |  | 6.78 ± 2.85 | 0.167 ± 0.0203 µM |  |  | 28.9 ± 8.16 |  | IC50 (hAChE [9]): 28.9 µM; IC50 (p38α MAPK [11]): 6.78 µM
CN(C)CCCNC(=O)c1cc2nn(CC3CCCCC3)cc2cc1Oc1ccc(F)cc1F [Compound 100, 2-(Cyclohexylmethyl)-5-(2,4-difluorophenoxy)-N-(3-(dimethylamino)propyl)-2H-indazole-6-carboxamide] |  | 16.2 | 16.2 ± 2.97 | 0.499 ± 0.045 µM |  |  | 41.9 ± 13.9 | 41.9 | 
COC1CCCN(CCNC(=O)c2cc3nn(CC4CCCCC4)cc3cc2Oc2ccc(F)cc2F)C1 (stereo not drawn) [Compound 101] | 51.8 ± 1.6% |  |  | 0.184 ± 0.031 µM | 0.184 | 51.8 ± 1.6% |  |  | RA at 100 µM (p38α MAPK [4]): 94.3 ± 2.4%; p38α MAPK RA at 100 μM (human p38α MAPK [2]): 94.3% and 94.3 ± 2.4%
O=C(NCCN1CCOCC1)c1cc2nn(CC3CCCCC3)cc2cc1Oc1ccc(F)cc1F [Compound 103] | 78.3 ± 2.1% |  |  | 10.8 ± 2.07 µM | 10.8 | 78.3 ± 2.1% |  |  | RA at 100 µM (p38α MAPK [4]): 66.8 ± 5.9%; p38α MAPK RA at 100 μM (human p38α MAPK [2]): 66.8% and 66.8 ± 5.9%
O/N=C/c1cc[n+](COC[n+]2ccc(/C=N/O)cc2)cc1 [Obidoxime, reference compound] |  |  |  |  |  |  |  |  | CNS (+/–) (predicted BBB permeation from Pe): CNS– (CNS– indicates low predicted BBB permeation [Pe (×10–6 cm/s) < 2.0])
